Assay results as given in publication PMC3127123, “Effect of 2-Hydroxypropyl-β-cyclodextrin on Solubility of Sparingly Soluble Drug Derivatives of Anthranilic Acid” (International Journal of Molecular Sciences, 2011).
In brackets after ≈: the same amount, converted by molar mass. Where two headings read alike, the source gives them in different places.

Assays:
[1] = Thermodynamic parameters of complexation from temperature dependence of stability constant (van't Hoff); type: physicochemical; conditions: T = 298.15 K, pH = 7 (buffer solution)
From the text: Thermodynamic parameters of reactions i.e. the free energy change (ΔG), the enthalpy change (ΔH) and the entropy change (ΔS), can be obtained from the temperature dependence of stability constant.

[2] = Phase solubility study: drug solubility in buffer solutions by UV-vis spectrophotometry; type: physicochemical; conditions: buffer solution without cyclodextrin, thermodynamic from solid, no cyclodextrin, read-out: solubility (C) in water (buffer solution), CD
Experimental: The calibration curves are included in these figures. The absorption spectra were recorded in the range of 190–350 nm and for the calculation of […] the change of absorption was measured at 340 nm (pH 7.0), 195 nm (pH 2.0) for MEF; 245 nm (pH 7.0), and 250 nm (pH 2.0) for NIF and 255 nm (pH 7.0), and 225 nm (pH 2.0) for FLU, respectively.
The UV-Vis spectrophotometer (Perkin–Elmer Life and Analytical Sciences, Shelton, USA) was used to determine the 2HP-β-CD influence on drug solubility. Maximum drug concentration was measured at different cyclodextrins concentrations, temperatures and pHs. Samples contained buffer solution with pH 7 or 2, 2HP-β-CD in different concentrations, i.e., 0, 1, 2, 4, 7 or 10 mmol·dm^−3 and drug in excess. Samples were thermostated and mixed for 20 hours and then left for 4 hours for separation. The uncertainties of the temperature measurements were judged to be 0.1 K. Absorbance of each sample was measured with the UV-vis spectrophotometer.
The stability constants were determined by the measurements of the concentration of the drug in the sample as a function of the cyclodextrin concentration. Such a method is usually called “Phase solubility study” [31]. In this method complex stability constants are calculated from the obtained solubility data using a spectophotometric method. As a reference sample, the buffer + 2HP-β-CD solutions were used. Two buffers were prepared (mol concentration) i.e., potassium dihydrogen phosphate (0.008), disodium hydrogen phosphate (0.008; buffer, pH = 7.0), potassium dihydrogen phosphate (0.05), hydrochloric acid (0.05, buffer, pH = 2.0). Samples were scanned with a scan step of 1 nm from 650 to 190 nm. Measurements at pH = 10 were not performed in all systems, because of the necessity of using too high drug concentrations and because of problems with separation of two phases.

[3] = cited from earlier work
[4] = Phase solubility study: effect of 2HP-β-CD on drug solubility and cyclodextrin-drug complex stability/dissociation constants; type: physicochemical; conditions: for cyclodextrin-drug complex stability constant Ks: 1:1 complex, Higuchi-Connors; for Kd: Kd = 1/Ks, value is Kd multiplied by 10^3, read-out: dissociation constant Kd·10^3; for solubility enhance ratio (R): drug concentration at highest 2HP-β-CD concentration relative to no cyclodextrin; for stability constant log Ks: pH = 7, T = 298.15 K, our value, phase solubility
Experimental: Solubility enhance ratio, R, was calculated as a drug concentration at the highest cyclodextrin concentration with relation to drug concentration in the absence of cyclodextrin. […] The opposite effect is observed for NIF. […] In general, when the solubility of the drug is very low, the solubility enhance ratio, R is high. Substitution of hydroxyl groups surrounding the 2HP-β-CD rim by the hydroxypropyl group promotes the complex formation process for drug derivatives of anthranilic acid with polar carboxylic substituent. […] Measurements of cyclodextrin-drug complex stability constants Ks and dissociation constants Kd are very important since these values indicate changes in physicochemical properties of a compound upon inclusion. Linear dependence of drug concentration to cyclodextrin concentration, with slope ratio below one usually assumes 1:1 ratio of complex. The stability constant, Ks, for complexes with 1:1 ratio is represented by: (1) Ks=[CD]/[D]⋅[C] Where: [D] is pure drug concentration, [C] is pure cyclodextrin concentration, and [CD] is concentration of drug-cyclodextrin complexes in solution. Complex dissociation constant, Kd, is represented by: […] For such systems, stability constant can be obtained by the following equation, investigated previously by Higuchi and Connors, 1965 [25]: (3) Ks=K1:1=slope/c0⋅(1−slope) […] Maximum drug concentration was measured at different cyclodextrins concentrations, temperatures and pHs. […] Samples were thermostated and mixed for 20 hours and then left for 4 hours for separation. The uncertainties of the temperature measurements were judged to be 0.1 K. Absorbance of each sample was measured with the UV-vis spectrophotometer. The stability constants were determined by the measurements of the concentration of the drug in the sample as a function of the cyclodextrin concentration. Such a method is usually called “Phase solubility study” [31]. In this method complex stability constants are calculated from the obtained solubility data using a spectophotometric method. As a reference sample, the buffer + 2HP-β-CD solutions were used. Two buffers were prepared (mol concentration) i.e., potassium dihydrogen phosphate (0.008), disodium hydrogen phosphate (0.008; buffer, pH = 7.0), potassium dihydrogen phosphate (0.05), hydrochloric acid (0.05, buffer, pH = 2.0). Samples were scanned with a scan step of 1 nm from 650 to 190 nm. Measurements at pH = 10 were not performed in all systems, because of the necessity of using too high drug concentrations and because of problems with separation of two phases.

[5] = T = 298.15 K, cited from earlier work
[6] = parameters: method as in earlier work; conditions: aqueous ethanol; cited from earlier work
[7] = pH 2, aqueous buffer, pH 2, T = 298.15 K
[8] = pH 2, aqueous buffer, pH 2, T = 310.15 K
[9] = pH 7, aqueous buffer, pH 7, T = 298.15 K
[10] = pH 7, aqueous buffer, pH 7, T = 310.15 K
[11] = previous work, densimetry and 1H NMR measurements

SMILES | entropy change (ΔS) of complexation [1] | free energy change (ΔG) of complexation [1] | solubility at 20 h [2, 7] | solubility at 20 h [2, 8] | solubility at 20 h [2, 9] | solubility at 20 h [2, 10] | cyclodextrin-drug complex stability constant Ks ([4]; pH 2, T = 298.15 K) | Kd ([4]; pH 2, T = 298.15 K) | solubility enhance ratio (R) ([4]; pH 2, T = 298.15 K) | cyclodextrin-drug complex stability constant Ks ([4]; pH 2, T = 310.15 K) | Kd ([4]; pH 2, T = 310.15 K) | solubility enhance ratio (R) ([4]; pH 2, T = 310.15 K) | cyclodextrin-drug complex stability constant Ks ([4]; pH 7, T = 298.15 K) | Kd ([4]; pH 7, T = 298.15 K) | solubility enhance ratio (R) ([4]; pH 7, T = 298.15 K) | cyclodextrin-drug complex stability constant Ks ([4]; pH 7, T = 310.15 K) | Kd ([4]; pH 7, T = 310.15 K) | solubility enhance ratio (R) ([4]; pH 7, T = 310.15 K) | stability constant log Ks [4] | further results
O=C(O)c1cccnc1Nc1cccc(C(F)(F)F)c1 [Niflumic acid] | 4.3 J·mol^−1·K^−1 | -2.7 kcal/mol | 698 µM (≈ 197 µg/mL) | 925 µM (≈ 261 µg/mL) | 5750 µM (≈ 1620 µg/mL) | 8170 µM (≈ 2310 µg/mL) | 26 M⁻¹ | 38.9 mM | 1.3 | 33 M⁻¹ | 29.2 mM | 1.3 | 96 M⁻¹ | 10.4 mM | 1.6 | 82 M⁻¹ | 12.2 mM | 1.5 | 1.98 | enthalpy change (ΔH) of complexation [1]: -2.39 kcal/mol; stability constant log Ks ([3]; 1H NMR, pH = 7.4, T = 298.15 K): 2.3; free energy change (ΔG) of complexation ([3]; T = 298.15 K, pH = 7.4): -2.94 kcal/mol; stability constant log Ks ([3]; UV-vis, pH = 7.4, T = 298.15 K): 3.09; stability constant log Ks ([3]; calorimetric measurements, pH = 7.4, T = 298.15 K): 2.2; stability constant log Ks ([3]; densimetry, pH = 7.4, T = 298.15 K): 2.8; stability constant log Ks ([3]; pH = 7, T = 298.15 K, cyclodextrin not named at the place): 2.72; stability constant log Ks ([3]; pH = 12, T = 298.15 K, cyclodextrin not named at the place): 2.53; enthalpy of complexation [3, 11]: -4.8 kcal/mol; entropy of complexation [3, 11]: negative
Cc1cccc(Nc2ccccc2C(=O)O)c1C [Mefenamic acid] | −33.0 J·mol^−1·K^−1 | -3.51 kcal/mol | 1 µM (≈ 0.241 µg/mL) | 1 µM (≈ 0.241 µg/mL) | 155 µM (≈ 37.4 µg/mL) | 220 µM (≈ 53.1 µg/mL) | 539 M⁻¹ | 1.86 mM | 6.4 | 1627 M⁻¹ | 0.62 mM | 17.3 | 383 M⁻¹ | 2.61 mM | 4.6 | 562 M⁻¹ | 1.78 mM | 6.0 | – | solubility in water ([5]; pH between 3 and 6): 0.87 × 10^−4 mmol·dm^−3
O=C(O)c1ccccc1Nc1cccc(C(F)(F)F)c1 [Flufenamic acid] | 50.2 J·mol^−1·K^−1 | – | 6 µM (≈ 1.69 µg/mL) | 15 µM (≈ 4.22 µg/mL) | 228 µM (≈ 64.1 µg/mL) | 298 µM (≈ 83.8 µg/mL) | 3055 M⁻¹ | 0.33 mM | 31.0 | 1850 M⁻¹ | 0.54 mM | 19.0 | 202 M⁻¹ | 4.95 mM | 2.9 | 218 M⁻¹ | 4.59 mM | 3.0 | 2.30 | solubility in water [5]: 2.38 × 10^−2 mmol·dm^−3; stability constant log Ks ([3]; phase-solubility diagrams, pH = 6.75, T = 298.15 K): 2.36
Oc1cc(Cl)ccc1Oc1ccc(Cl)cc1Cl [triclosan] | – | – | – | – | – | – | – | – | – | – | – | – | – | – | – | – | – | – | – | solubility increase on complexation with 2HP-β-CD [6]: 70 fold
